The text below walks through data of patent publication US11492335B2, “Aryl or heteroaryl triazolone derivatives or salts thereof, or pharmaceutical compositions comprising the same” (YUHAN CORPORATION, priority 2018, dated 2022).

What all share (assay type): biochemical
Experiment [1] deals with T1, recombinant human MAO-B (monoamine oxidase-B) (Homo sapiens, UniProt P27338).
T1 construct: purchased Sigma-Aldrich
T1 sequence (P27338 1-520): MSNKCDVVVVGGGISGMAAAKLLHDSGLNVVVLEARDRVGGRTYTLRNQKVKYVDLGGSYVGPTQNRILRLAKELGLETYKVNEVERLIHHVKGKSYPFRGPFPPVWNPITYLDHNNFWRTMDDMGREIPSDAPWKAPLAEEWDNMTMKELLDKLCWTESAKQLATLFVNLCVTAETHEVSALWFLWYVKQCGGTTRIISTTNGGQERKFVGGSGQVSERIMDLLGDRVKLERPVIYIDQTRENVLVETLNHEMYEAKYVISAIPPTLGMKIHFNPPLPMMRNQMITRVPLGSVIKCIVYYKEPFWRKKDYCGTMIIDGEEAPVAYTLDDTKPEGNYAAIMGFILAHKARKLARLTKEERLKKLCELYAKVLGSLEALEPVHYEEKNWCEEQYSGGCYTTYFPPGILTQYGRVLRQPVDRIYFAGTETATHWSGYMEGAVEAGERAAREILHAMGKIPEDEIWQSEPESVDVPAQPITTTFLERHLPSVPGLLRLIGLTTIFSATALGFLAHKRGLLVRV
Kind of experiment: Activity on recombinant human MAO-B, Amplex Red method, 1 mM benzylamine substrate. The conditions noted are these: 1 mM benzylamine substrate, read-out: Inhibitory Activity (IC50, nM) MAO-B. The method in brief: (§1)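 Fluorescence (544/590 nm) of resorufin formed from Amplex Red by HRP and enzyme-generated H2O2 was followed over 1-2 h. Substrates were 0.5 mM tyramine for MAO-A and 1 mM benzylamine for MAO-B; compounds were preincubated with enzyme for 30 min at 37° C. IC50 came from four-parameter logistic fitting of signal-rate inhibition.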

For experiment [2], the target named is T2, recombinant human VAP-1 (Homo sapiens, UniProt Q16853).
T2 construct: purchased R&D systems
T2 sequence (Q16853 1-763): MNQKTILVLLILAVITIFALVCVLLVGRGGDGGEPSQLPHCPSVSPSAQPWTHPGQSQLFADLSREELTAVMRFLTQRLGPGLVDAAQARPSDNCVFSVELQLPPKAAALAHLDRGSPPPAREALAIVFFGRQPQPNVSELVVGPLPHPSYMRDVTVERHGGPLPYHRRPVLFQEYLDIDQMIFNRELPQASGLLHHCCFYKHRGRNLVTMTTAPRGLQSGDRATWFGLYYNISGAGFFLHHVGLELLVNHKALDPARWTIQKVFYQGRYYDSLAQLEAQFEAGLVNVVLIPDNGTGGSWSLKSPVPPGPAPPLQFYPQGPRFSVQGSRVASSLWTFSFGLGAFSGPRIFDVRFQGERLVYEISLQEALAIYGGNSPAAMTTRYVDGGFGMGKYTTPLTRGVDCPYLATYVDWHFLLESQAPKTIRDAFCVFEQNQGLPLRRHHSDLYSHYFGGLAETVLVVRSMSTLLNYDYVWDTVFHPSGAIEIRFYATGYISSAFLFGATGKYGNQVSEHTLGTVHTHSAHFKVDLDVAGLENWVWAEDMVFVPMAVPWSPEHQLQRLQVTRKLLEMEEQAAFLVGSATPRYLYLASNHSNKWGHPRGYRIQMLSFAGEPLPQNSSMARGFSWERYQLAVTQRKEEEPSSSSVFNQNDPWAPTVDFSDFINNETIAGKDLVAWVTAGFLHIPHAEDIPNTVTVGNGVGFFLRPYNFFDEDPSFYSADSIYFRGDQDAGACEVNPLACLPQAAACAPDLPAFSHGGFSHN
Kind of experiment: Activity on recombinant human VAP-1, Amplex Red HRP-coupled hydrogen peroxide assay, benzylamine substrate. The settings on record: recombinant human VAP-1, benzylamine substrate; read-out: Inhibitory Activity (IC50, nM) human VAP-1. The method in brief: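 Fluorescence of resorufin formed from H2O2 (ex 544 nm, em 590 nm) was tracked for 1-2 h after adding 1 mM benzylamine, 200 uM Amplex Red and 1 U/mL HRP to enzyme pretreated with compound for 30 min at 37 °C. IC50 values derive from four-variable logistic fits.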

Experiment [3] deals with T3, recombinant human MAO-A (monoamine oxidase-A) (Homo sapiens, UniProt P21397).
T3 construct: purchased Sigma-Aldrich
T3 sequence (P21397 1-527): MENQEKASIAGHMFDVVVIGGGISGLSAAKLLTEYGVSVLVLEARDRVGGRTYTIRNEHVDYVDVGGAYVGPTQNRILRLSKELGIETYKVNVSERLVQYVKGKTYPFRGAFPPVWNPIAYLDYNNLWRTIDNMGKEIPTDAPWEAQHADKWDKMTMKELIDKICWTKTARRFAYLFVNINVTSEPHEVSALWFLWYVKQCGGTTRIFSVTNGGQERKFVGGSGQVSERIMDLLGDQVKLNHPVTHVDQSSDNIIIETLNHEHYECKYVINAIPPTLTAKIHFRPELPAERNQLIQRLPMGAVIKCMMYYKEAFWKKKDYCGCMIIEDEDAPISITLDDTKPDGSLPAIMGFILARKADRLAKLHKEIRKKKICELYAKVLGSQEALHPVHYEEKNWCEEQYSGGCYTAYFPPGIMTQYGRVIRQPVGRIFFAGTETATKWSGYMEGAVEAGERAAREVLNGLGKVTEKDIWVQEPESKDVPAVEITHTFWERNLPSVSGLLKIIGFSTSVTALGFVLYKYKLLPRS
Kind of experiment: Activity on recombinant human MAO-A, Amplex Red method, 0.5 mM tyramine substrate. The settings on record: 0.5 mM tyramine substrate, read-out: Inhibitory Activity (IC50, nM) MAO-A. Put shortly: as §1

Experiment [4] has as its target T4, recombinant human DAO (diamine oxidase) (Homo sapiens, UniProt P19801).
T4 construct: purchased R&D systems
T4 sequence (P19801 20-751): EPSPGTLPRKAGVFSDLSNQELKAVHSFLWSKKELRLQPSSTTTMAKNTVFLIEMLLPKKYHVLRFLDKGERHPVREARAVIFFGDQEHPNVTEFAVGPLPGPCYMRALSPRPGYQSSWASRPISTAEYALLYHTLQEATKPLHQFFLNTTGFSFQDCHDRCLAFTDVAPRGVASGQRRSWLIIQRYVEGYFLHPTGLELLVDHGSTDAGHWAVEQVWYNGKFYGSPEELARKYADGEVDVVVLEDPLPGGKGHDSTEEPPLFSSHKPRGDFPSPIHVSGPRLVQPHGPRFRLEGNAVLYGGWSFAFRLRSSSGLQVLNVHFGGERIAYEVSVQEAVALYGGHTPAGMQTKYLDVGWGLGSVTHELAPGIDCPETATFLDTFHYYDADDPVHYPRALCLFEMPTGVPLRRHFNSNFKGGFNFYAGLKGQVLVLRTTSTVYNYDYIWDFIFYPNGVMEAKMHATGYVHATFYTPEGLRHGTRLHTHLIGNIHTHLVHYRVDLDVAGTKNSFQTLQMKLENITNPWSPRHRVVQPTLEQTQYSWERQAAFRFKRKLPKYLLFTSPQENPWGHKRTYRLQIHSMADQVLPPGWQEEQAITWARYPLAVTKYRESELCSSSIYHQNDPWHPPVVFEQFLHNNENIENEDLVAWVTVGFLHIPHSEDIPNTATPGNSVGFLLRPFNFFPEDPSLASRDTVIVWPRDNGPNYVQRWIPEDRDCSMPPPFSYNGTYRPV
In words: Activity on recombinant human DAO, Amplex Red method, 1 mM putrescine substrate. The settings on record: recombinant human DAO, 1 mM putrescine substrate; read-out: Inhibitory Activity (IC50, nM) DAO. The method in brief: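 Inhibition of recombinant human DAO (diamine oxidase, R&D systems) was assessed with the Amplex Red Hydrogen Peroxide Assay Kit. Hydrogen peroxide produced from 1 mM putrescine was detected through an HRP-coupled reaction that converts Amplex Red into fluorescent resorufin, read at 544 nm excitation and 590 nm emission. IC50 values came from four-parameter logistic fits in GraphPad Prism.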

The structures appear in SMILES notation. Where a name gives a salt, the structure may show the parent alone.

In the case of `NC/C(=C\F)Cn1ncn(-c2cc(C#Cc3ccccn3)ccn2)c1=O` [Example 244, 2-[(2E)-2-(aminomethyl)-3-fluoroprop-2-en-1-yl]-4-[4-(pyridin-2-ylethynyl)pyridin-2-yl]-2,4-dihydro-3H-1,2,4-triazol-3-one hydrochloride], the IC50 is 100 nM in experiment [1], 0.8 nM in experiment [2], more than 100000 nM in experiment [3] and 12 nM in experiment [4].
Regarding `NC/C(=C\F)Cn1ncn(-c2cc(C#Cc3cccnc3)ccn2)c1=O` [Example 245, 2-[(2E)-2-(aminomethyl)-3-fluoroprop-2-en-1-yl]-4-[4-(pyridin-3-ylethynyl)pyridin-2-yl]-2,4-dihydro-3H-1,2,4-triazol-3-one hydrochloride], the IC50 is 300 nM in experiment [1], 0.9 nM in experiment [2], more than 100000 nM in experiment [3] and 11 nM in experiment [4].
`NC/C(=C\F)Cn1ncn(-c2cc(C#Cc3ccncc3)ccn2)c1=O` [Example 246, 2-[(2E)-2-(aminomethyl)-3-fluoroprop-2-en-1-yl]-4-[4-(pyridin-4-ylethynyl)pyridin-2-yl]-2,4-dihydro-3H-1,2,4-triazol-3-one hydrochloride]: the IC50 was 130 nM in experiment [1], 0.5 nM in experiment [2], more than 100000 nM in experiment [3] and 12 nM in experiment [4].
For `COc1ccc(C#Cc2cccc(-n3cnn(C/C(=C/F)CN)c3=O)n2)cn1` [Example 247, 2-[(2E)-2-(aminomethyl)-3-fluoroprop-2-en-1-yl]-4-{6-[(6-methoxypyridin-3-yl)ethynyl]pyridin-2-yl}-2,4-dihydro-3H-1,2,4-triazol-3-one] the same measures were 4300 nM, 0.3 nM, more than 100000 nM and 14 nM.
For `CN(C)c1ccc(C#Cc2cccc(-n3cnn(C/C(=C/F)CN)c3=O)n2)cn1` [Example 248, 2-[(E)-2-(aminomethyl)-3-fluoro-allyl]-4-[6-[2-[6-(dimethylamino)-3-pyridyl]ethynyl]-2-pyridyl]-1,2,4-triazol-3-one] the same measures were more than 10000 nM, 0.5 nM, more than 100000 nM and 36 nM.
For `NC/C(=C\F)Cn1ncn(-c2cccc(C#Cc3ccc(N4CCOCC4)nc3)n2)c1=O` [Example 249, 2-[(E)-2-(aminomethyl)-3-fluoro-allyl]-4-[6-[2-(6-morpholino-3-pyridyl)ethynyl]-2-pyridyl]-1,2,4-triazol-3-one] the same measures were 2000 nM, 0.4 nM, more than 100000 nM and 8 nM.
Regarding `NC/C(=C\F)Cn1ncn(-c2cccc(C#Cc3ccc4c(c3)NCCO4)n2)c1=O` [Example 250, 2-[(E)-2-(aminomethyl)-3-fluoro-allyl]-4-[6-[2-(3,4-dihydro-2H-1,4-benzoxazin-6-yl)ethynyl]-2-pyridyl]-1,2,4-triazol-3-one], the half-inhibitory concentration (IC50) in experiment [1] was more than 10000 nM; in experiment [2] it was 0.7 nM; in experiment [3], more than 100000 nM; in experiment [4] it was 74 nM.
On to `NC/C(=C\F)Cn1ncn(-c2cccc(C#Cc3cnc4c(c3)NCCO4)n2)c1=O` [Example 251, 2-[(E)-2-(aminomethyl)-3-fluoro-allyl]-4-[6-[2-(2,3-dihydro-1H-pyrido[2,3-b][1,4]oxazin-7-yl)ethynyl]-2-pyridyl]-1,2,4-triazol-3-one], for which the IC50 in experiment [1] is more than 10000 nM; in experiment [2], 0.3 nM; in experiment [3] it was more than 100000 nM; in experiment [4] it was 21 nM.
`NC/C(=C\F)Cn1ncn(-c2cccc(C#Cc3cnc4c(c3)OCCN4)n2)c1=O` [Example 252, 2-[(E)-2-(aminomethyl)-3-fluoro-allyl]-4-[6-[2-(3,4-dihydro-2H-pyrido[3,2-b][1,4]oxazin-7-yl)ethynyl]-2-pyridyl]-1,2,4-triazol-3-one]: the IC50 is more than 10000 nM in experiment [1], 0.6 nM in experiment [2], more than 100000 nM in experiment [3] and 53 nM in experiment [4].
For `NC/C(=C\F)Cn1ncn(-c2cccc(C#Cc3ccc4c(n3)OCCN4)n2)c1=O` [Example 253, 2-[(E)-2-(aminomethyl)-3-fluoro-allyl]-4-[6-[2-(2,3-dihydro-1H-pyrido[2,3-b][1,4]oxazin-6-yl)ethynyl]-2-pyridyl]-1,2,4-triazol-3-one] the same measures were more than 10000 nM, 0.5 nM, more than 100000 nM and 34 nM.
For `NC/C(=C\F)Cn1ncn(-c2cccc(C#Cc3ccc4c(c3)CCC(=O)N4)n2)c1=O` [Example 254, 6-[2-[6-[1-[(E)-2-(aminomethyl)-3-fluoro-allyl]-5-oxo-1,2,4-triazol-4-yl]-2-pyridyl]ethynyl]-3,4-dihydro-1H-quinolin-2-one] the same measures were more than 10000 nM, 0.2 nM, more than 100000 nM and 35 nM.

Usually IC50 stands for the concentration needed to halve the response being measured.
